Assay results taken from the NIST ThermoML archive (doi:10.1016/j.jct.2012.01.011).
Numbers after ± are expanded uncertainties.

Assay: molar heat capacity at constant pressure
Settings: Liquid, Flow calorimetry

Row | Compound | molar heat capacity at constant pressure (293.15 K, 100 kPa) [J/K/mol] | molar heat capacity at constant pressure (293.15 K, 10000 kPa) [J/K/mol] | molar heat capacity at constant pressure (293.15 K, 20000 kPa) [J/K/mol] | molar heat capacity at constant pressure (293.15 K, 30000 kPa) [J/K/mol] | molar heat capacity at constant pressure (313.15 K, 100 kPa) [J/K/mol] | molar heat capacity at constant pressure (313.15 K, 10000 kPa) [J/K/mol] | molar heat capacity at constant pressure (313.15 K, 20000 kPa) [J/K/mol] | molar heat capacity at constant pressure (313.15 K, 30000 kPa) [J/K/mol] | molar heat capacity at constant pressure (333.15 K, 100 kPa) [J/K/mol] | molar heat capacity at constant pressure (333.15 K, 10000 kPa) [J/K/mol] | molar heat capacity at constant pressure (333.15 K, 20000 kPa) [J/K/mol] | molar heat capacity at constant pressure (333.15 K, 30000 kPa) [J/K/mol] | molar heat capacity at constant pressure (353.15 K, 100 kPa) [J/K/mol] | molar heat capacity at constant pressure (353.15 K, 10000 kPa) [J/K/mol] | molar heat capacity at constant pressure (353.15 K, 20000 kPa) [J/K/mol] | molar heat capacity at constant pressure (353.15 K, 30000 kPa) [J/K/mol]
1 | CC(C)CCCC(C)CCCC(C)CCCCC(C)CCCC(C)CCCC(C)C (stereo not drawn) [2,6,10,15,19,23-hexamethyltetracosane] | 879 ± 8.9 | 873.5 ± 8.8 | 868.5 ± 8.8 | 865.5 ± 8.7 | 904.4 ± 9.1 | 898.9 ± 9.1 | 896.4 ± 9.1 | 893.4 ± 9 | 943.3 ± 9.5 | 940.8 ± 9.5 | 936.1 ± 9.5 | 929.3 ± 9.4 | 978.8 ± 9.9 | 973.7 ± 9.8 | 963.2 ± 9.7 | 959.8 ± 9.7
2 | CCCCC(CC)COC(=O)c1ccccc1C(=O)OCC(CC)CCCC (stereo not drawn) [bis(2-ethylhexyl) 1,2-benzenedicarboxylate] | 703 ± 7.1 | 701.5 ± 7.1 | 699.9 ± 7.1 | 699.6 ± 7.1 | 726.9 ± 7.3 | 724.9 ± 7.3 | 723 ± 7.3 | 722 ± 7.3 | 751.3 ± 7.6 | 750 ± 7.6 | 747.5 ± 7.6 | 746 ± 7.5 | 774.5 ± 7.8 | 770.5 ± 7.8 | 767.9 ± 7.8 | 763.4 ± 7.7
3 | CCCCC(CC)COC(=O)CCCCCCCCC(=O)OCC(CC)CCCC (stereo not drawn) [bis(2-ethylhexyl) decanedioate] | 810.3 ± 8.2 | 808.5 ± 8.2 | 805.6 ± 8.1 | 803 ± 8.1 | 846.5 ± 8.6 | 843.5 ± 8.5 | 840.1 ± 8.5 | 838.4 ± 8.5 | 878.1 ± 8.9 | 875.5 ± 8.8 | 873.4 ± 8.8 | 871.7 ± 8.8 | 910.9 ± 9.2 | 909.7 ± 9.2 | 907.1 ± 9.2 | 906.3 ± 9.2
